Test results from US20240408008A1, “AN IN-SITU GELLING ENEMA OF RIFAMYCIN FOR TREATING POUCHITIS AND DISTAL ULCERATIVE COLITIS” (COSMO TECHNOLOGIES LTD., priority 2021, published 2024).
Values after ≈ are worked out from the molar mass of the structure shown.

Columns and labels:
Veillonella parvula = test: MIC, broth dilution; type: cell-based; settings: DSM2007; Veillonella parvula DSM 2007; anaerobic
Escherichia coli = test: MIC, broth dilution; type: cell-based; settings: aerobic
Parvimonas micra = test: MIC, broth dilution; type: cell-based; settings: DSM20468; Parvimonas micra (DSM 20468); anaerobic
mTOR pathway = test: Inhibition of mTOR and S6R phosphorylation in primary colonic epithelial cells, flow cytometry; type: cell-based, human
Experimental: To evaluate Rifamycin activity on the mTOR pathway, primary colonic epithelial cells were serum starved for 24 hr and restimulated with serum for 48 hr to induce phosphorylation of mTOR and its downstream target protein […]. Serum stimulated cells were treated with Rifamycin SV, Rifaximin, the positive control Rapamycin, or the negative vehicle control DMSO. Cells were fixed, stained with antibodies against pmTOR and pS6R then analyzed by flow cytometry.

Rothia dentocariosa = test: MIC, broth dilution; type: cell-based; settings: DSM43762; Rothia dentocariosa (DSM 43762); aerobic
[1] = system: Faecalibacterium prausnitzii; test: MIC, broth dilution; type: cell-based; settings: anaerobic
B. bifidum = test: MIC, broth dilution; type: cell-based; settings: Bifidobacterium bifidum, DSM20082; B. bifidum (DSM 20082); anaerobic
[2] = system: Aggregatibacter actinomycetemcomitans; test: MIC, broth dilution; type: cell-based; settings: DSM11123; Aggregatibacter actinomycetemcomitans (DSM 11123); anaerobic
E. faecalis = test: MIC, broth dilution; type: cell-based; settings: Enterococcus faecalis, aerobic
Eikenella corrodens = test: MIC, broth dilution; type: cell-based; settings: DSM8340; Eikenella corrodens (DSM 8340); anaerobic
DSS induced colitis = test: Acute colitis induced by Dextran Sulfate Sodium (DSS); type: in vivo; settings: mice, DSS 2%, enema 67 mg/kg
Experimental: In situ gel enema formulation batch 7663 (same formulation as batch 7639) in vivo efficacy was tested in a murine model of acute colitis induced by Dextran Sulfate Sodium (DSS). This animal model is perhaps the most widely used mouse model of colitis and employs DSS, a chemical colitogen with anticoagulant properties, to induce disease which closely resembles human UC. DSS induced intestinal inflammation results in damage to the epithelial monolayer lining the large intestine allowing the dissemination of proinflammatory intestinal contents (e.g. bacteria and their products) into underlying tissue.
(§1) For this study, a group of mice was treated by enema with Batch 7663 (indicated as CB0125 in the figures) (dose 45 mg/kg), one group was treated by enema with Placebo Batch 7679 as a comparator for 7663; a group was treated by enema with Rifamycin powder dissolved in water (67 mg/kg). One group of mice was treated orally PO with 5-ASA at the dose of 100 mg/Kg; this group was introduced as positive control. 5-ASA is the golden standard therapy for inflammatory bowel diseases, including UC, distal UC and proctitis. One group was treated by enema with the vehicle (H2O) only, as negative control.
Briefly DSS (2%) was dissolved in water (w/v) and given to mice in place of normal drinking water. DSS water was provided ad libitum for 5 days and was changed daily. This period was followed by a washout period of 5 days with water only. Mice were weighed daily and monitored for clinical status including hunching, mobility, soft stool and/or diarrhoea. At end of the study mice were sacrificed by CO2 inhalation. Immediately after euthanasia, the animals were laparatomyzed and intestine was exteriorized. The entire colon was isolated from the caecum to the anus, placed unstretched on a ruler and then measured and weighed after rinsing the lumen with saline. The weight was normalized to the colon length by calculating the ratio.
For histological analysis of colon samples, about 2 cm of the middle portion of isolated colon was fixed in a 10% formalin. Each fixed fragment was embedded in paraffin. The slides were stained with haematoxylin and eosin and assessed according to the histological score.

Enteroccocus faecium = test: MIC, broth dilution; type: cell-based; settings: aerobic
Bacteroides fragilis = test: MIC, broth dilution; type: cell-based; settings: anaerobic
[3] = Rifamycin concentration in colon of DSS mice, HPLC MS/MS; type: in vivo; settings: enema 67 mg/kg, all the tested time-points
Experimental: as §1
For PK analysis colon samples were cut into in pieces and washed 3 times with PBS to remove surface contaminants.

F. nucleatum = test: MIC, broth dilution; type: cell-based; settings: Fusobacterium nucleatum, anaerobic
Porphiromonas gingivalis = test: MIC, broth dilution; type: cell-based; settings: Porphiromonas gingivalis (DSM 20709); anaerobic
B. adolescentis = test: MIC, broth dilution; type: cell-based; settings: Bifidobacterium adolescentis, DSM20083; B. adolescentis (DSM 20083); anaerobic
K. pneumoniae = test: MIC, broth dilution; type: cell-based; settings: Klebsiella pneumoniae, aerobic

**Q.** Which results are given for `CO[C@H]1/C=C/O[C@@]2(C)Oc3c(C)c(O)c4c(O)c(cc(O)c4c3C2=O)NC(=O)/C(C)=C\C=C\[C@H](C)[C@H](O)[C@@H](C)[C@@H](O)[C@@H](C)[C@H](OC(C)=O)[C@@H]1C` [Rifamycin SV]?
**A.** MIC (Veillonella parvula): < 0.03 mg/L; MIC (Escherichia coli; ATCC35218, Escherichia coli (ATCC 35218)): 50 mg/L (≈ 71.7 µM); MIC (Escherichia coli; Escherichia coli, ATCC11775, E. coli (ATCC 11775)): 16 mg/L (≈ 22.9 µM); MIC (Escherichia coli; Escherichia coli, ATCC25922, E. coli (ATCC 25922)): 64 mg/L (≈ 91.7 µM); MIC (Escherichia coli; Escherichia coli, ATCC51446, E. coli (ATCC 51446)): 200 mg/L (≈ 287 µM); MIC (Escherichia coli; Escherichia coli, DSM22312, E. coli (DSM 22312)): 32 mg/L (≈ 45.9 µM); MIC (Escherichia coli; Escherichia coli, DSM22313, E. coli (DSM 22313 )): 64 mg/L (≈ 91.7 µM); MIC (Escherichia coli; Escherichia coli, DSM22664, E. coli (DSM 22664 )): 32 mg/L (≈ 45.9 µM); MIC (Parvimonas micra): < 0.3 mg/L; IC50 (mTOR pathway; Homo sapiens, Epithelial cell, serum stimulated primary colonic epithelial cells, 48 hr, read-out: IC50, % cells positive for anti-pmTOR and anti-pS6R relative to DMSO): 9.9 µM; mTOR pathway potency, fold less potent than Rapamycin (mTOR pathway; ratio of IC50): 20 fold; mTOR pathway potency, fold more potent than Rifaximin (mTOR pathway; ratio of IC50): 4 fold; MIC (Rothia dentocariosa): < 0.03 mg/L; MIC ([1]; DSM107839, Faecalibacterium prausnitzii (DSM 107839)): 0.06 mg/L (≈ 0.086 µM); MIC ([1]; Faecalibacterium prausnitzii, DSM17677, F. prausnitzii (DSM 17677)): < 0.03 mg/L; MIC ([1]; Faecalibacterium prausnitzii, DSM107838, F. prausnitzii (DSM 107838)): < 0.03 mg/L; MIC ([1]; Faecalibacterium prausnitzii, DSM107840, F. prausnitzii (DSM 107840)): < 0.03 mg/L; MIC (B. bifidum): 1 mg/L (≈ 1.43 µM); MIC [2]: < 0.3 mg/L; MIC (E. faecalis; ATCC29212, E. faecalis (ATCC 29212)): 50 mg/L (≈ 71.7 µM); MIC (E. faecalis; DSM2570, E. faecalis (DSM 2570)): 200 mg/L (≈ 287 µM); MIC (E. faecalis; DSM2921, E. faecalis (DSM 2921)): 64 mg/L (≈ 91.7 µM); MIC (E. faecalis; DSM2981, E. faecalis (DSM 2981)): 200 mg/L (≈ 287 µM); MIC (E. faecalis; DSM6134, E. faecalis (DSM 6134)): 50 mg/L (≈ 71.7 µM); MIC (E. faecalis; E. faecalis (6172818861)): 12.5 mg/L (≈ 17.9 µM); MIC (E. faecalis; E. faecalis (C 46)): 12.5 mg/L (≈ 17.9 µM); MIC (E. faecalis; E. faecalis (E 83)): 3.12 mg/L (≈ 4.47 µM); MIC (Eikenella corrodens): < 0.3 mg/L; histological score (DSS induced colitis; compared to 7663): lower improvement; clinical score AUC (DSS induced colitis; compared to batch 7663): lower efficacy; cumulative stool score (DSS induced colitis; vs vehicle): significant improvement; MIC (Enteroccocus faecium; Enteroccocus faecium (0808711)): 100 mg/L (≈ 143 µM); MIC (Enteroccocus faecium; Enterococcus faecium, DSM17050, E. faecium (DSM 17050)): 64 mg/L (≈ 91.7 µM); MIC (Enteroccocus faecium; Enterococcus faecium, DSM25697, E. faecium (DSM 25697)): 1 mg/L (≈ 1.43 µM); MIC (Enteroccocus faecium; Enterococcus faecium, E. faecium (09006056)): 100 mg/L (≈ 143 µM); MIC (Enteroccocus faecium; Enterococcus faecium, E. faecium (DSM13590)): 32 mg/L (≈ 45.9 µM); MIC (Bacteroides fragilis; Bacteroides fragilis, DSM1396, B. fragilis (DSM 1396)): 0.39 mg/L (≈ 0.559 µM); MIC (Bacteroides fragilis; Bacteroides fragilis, DSM9668, B. fragilis (DSM 9668)): 100 mg/L (≈ 143 µM); MIC (Bacteroides fragilis; Bacteroides fragilis, DSM9669, B. fragilis (DSM 9669)): 100 mg/L (≈ 143 µM); MIC (Bacteroides fragilis; Bacteroides fragilis, DSM9670, B. fragilis (DSM 9670)): 50 mg/L (≈ 71.7 µM); MIC (Bacteroides fragilis; Bacteroides fragilis, DSM9671, B. fragilis (DSM 9671)): 50 mg/L (≈ 71.7 µM); MIC (Bacteroides fragilis; DSM2151, Bacteroides fragilis (DSM 2151)): 0.78 mg/L (≈ 1.12 µM); Rifamycin concentration in the colon homogenate [3]: lower than that of the animals treated with formulation 7663; MIC (F. nucleatum; DSM15643, F. nucleatum (DSM 15643)): < 0.03 mg/L; MIC (F. nucleatum; DSM19507, F. nucleatum (DSM 19507)): 8 mg/L (≈ 11.5 µM); MIC (Porphiromonas gingivalis): < 0.3 mg/L; MIC (B. adolescentis): 1 mg/L (≈ 1.43 µM); MIC (K. pneumoniae; DSM16609, K. pneumoniae (DSM 16609)): > 64 mg/L; MIC (K. pneumoniae; DSM25721, K. pneumoniae (DSM 25721)): 64 mg/L (≈ 91.7 µM)
